In ChEMBL document CHEMBL4340502, “Anti-biofilm and anti-adherence properties of novel cyclic dipeptides against oral pathogens” (Bioorg Med Chem, 2019):
Active and inactive are the calls of the source. How the calls were made is not given here.

Legend:
[1] = system: Porphyromonas gingivalis; test: Antibiofilm activity against Porphyromonas gingivalis ATCC 33277 assessed as inhibition of biofilm formation up to 96 ug/mL after 24 hrs by crystal violet staining based assay; type: functional, organism-based
[2] = system: Fusobacterium nucleatum; test: Antibiofilm activity against Fusobacterium nucleatum ATCC 25586 assessed as inhibition of biofilm formation up to 96 ug/mL after 24 hrs by crystal violet staining based assay; type: functional, organism-based
[3] = system: Streptococcus mutans; test: Inhibition of planktonic growth of Streptococcus mutans ATCC 25175 up to 96 ug/mL after 24 hrs relative to control; type: organism-based
[4] = system: Streptococcus mutans; test: Antibiofilm activity against Streptococcus mutans ATCC 25175 assessed as inhibition of biofilm formation up to 96 ug/mL after 24 hrs by crystal violet staining-based assay; type: functional, organism-based

Compound	inhibition [1]	inhibition [2]	growth inhibition (GI) [3]	inhibition [4]
CC(C)C[C@@H]1NC(=O)[C@H](Cc2ccc([N+](=O)[O-])cc2)NC1=O	inactive	inactive	Non-Toxic	inactive
CC(C)C[C@@H]1NC(=O)CNC1=O	inactive	inactive	Non-Toxic	inactive
CCC(C)[C@@H]1NC(=O)[C@H](COCc2ccccc2)NC1=O (some centres not stated)	inactive	inactive	Non-Toxic	inactive
N=C(N)NCCC[C@@H]1NC(=O)[C@H](Cc2ccc(O)cc2)NC1=O	inactive	inactive	Non-Toxic	inactive
C[C@@H]1NC(=O)[C@H](Cc2ccccc2)NC1=O	inactive	inactive	Non-Toxic	inactive
O=C1[C@@H]2CCCN2C(=O)[C@@H]2CCCN12	inactive	inactive	Non-Toxic	inactive
C[C@@H](OCc1ccccc1)[C@@H]1NC(=O)[C@H]([C@@H](C)OCc2ccccc2)NC1=O	inactive	inactive	Non-Toxic	inactive
CC(C)C[C@@H]1NC(=O)[C@H](C)NC1=O	inactive	inactive	Non-Toxic	inactive
O=C1N[C@H](Cc2ccccc2)C(=O)N[C@@H]1COCc1ccccc1	inactive	inactive	Non-Toxic	inactive
CC(C)[C@@H]1NC(=O)[C@H](Cc2ccc(OCc3ccccc3)cc2)NC1=O	inactive	inactive	Non-Toxic	inactive
O=C1[C@H]2CCCN2C(=O)[C@H]2CCCN12	inactive	inactive	Non-Toxic	inactive
C[C@H]1NC(=O)[C@@H](Cc2ccccc2)NC1=O	inactive	inactive	Non-Toxic	inactive
NCCCC[C@@H]1NC(=O)[C@H](Cc2ccccc2)NC1=O	inactive	inactive	Non-Toxic	inactive
CC(C)[C@@H]1NC(=O)[C@H](C)NC1=O	inactive	inactive	Non-Toxic	inactive
CC(C)C[C@@H]1NC(=O)[C@H](CC(C)C)NC1=O	inactive	inactive	Non-Toxic	inactive
C[C@@H]1NC(=O)[C@H](Cc2ccc(OCc3ccccc3)cc2)NC1=O	inactive	inactive	Non-Toxic	inactive
O=C(NCCCC[C@@H]1NC(=O)[C@H](Cc2ccccc2)NC1=O)OCc1ccccc1	inactive	inactive	Non-Toxic	inactive
O=C(NCCCC[C@@H]1NC(=O)[C@H](CCCCNC(=O)OCc2ccccc2)NC1=O)OCc1ccccc1	inactive	inactive	Non-Toxic	inactive
CC(C)C[C@H]1NC(=O)[C@@H](Cc2ccc(OCc3ccccc3)cc2)NC1=O	inactive	inactive	Non-Toxic	inactive
O=C1N[C@@H](COCc2ccccc2)C(=O)N[C@H]1COCc1ccccc1	inactive	inactive	Non-Toxic	inactive
CC(C)[C@H]1NC(=O)[C@@H](C(C)C)NC1=O	inactive	inactive	Non-Toxic	inactive
O=C1N[C@H](COCc2ccccc2)C(=O)N[C@@H]1COCc1ccccc1	inactive	inactive	Non-Toxic	inactive
O=C1[C@@H]2CCCN2C(=O)[C@H]2CCCN12	inactive	inactive	Non-Toxic	inactive
CC(C)[C@@H]1NC(=O)[C@H](C(C)C)NC1=O	inactive	inactive	Non-Toxic	inactive

Compound	inhibition [1]	inhibition [2]	growth inhibition (GI) [3]	inhibition [4]
C[C@H]1NC(=O)[C@@H](C)NC1=O	inactive	inactive	Non-Toxic	inactive
CC(C)C[C@H]1NC(=O)[C@H](Cc2ccccc2)NC1=O	inactive	inactive	Non-Toxic	inactive
N=C(N)N(CCC[C@@H]1NC(=O)[C@H](CCCCNC(=O)OCc2ccccc2)NC1=O)[N+](=O)[O-]	inactive	inactive	Non-Toxic	inactive
O=C1CNC(=O)[C@H](Cc2ccccc2)N1	inactive	inactive	Non-Toxic	inactive
CC(C)C[C@H]1NC(=O)[C@@H](C(C)C)NC1=O	inactive	inactive	Non-Toxic	inactive
CC(C)C[C@@H]1NC(=O)[C@@H](Cc2ccc(OCc3ccccc3)cc2)NC1=O	inactive	inactive	Non-Toxic	inactive
O=C1N[C@@H](Cc2ccc(OCc3ccccc3)cc2)C(=O)N2CCC[C@@H]12	inactive	inactive	Non-Toxic	inactive
C[C@@H]1NC(=O)[C@@H](C)NC1=O	inactive	inactive	Non-Toxic	inactive
CC(C)C[C@H]1NC(=O)[C@@H](CC(C)C)NC1=O	inactive	inactive	Non-Toxic	inactive
O=C1[C@@H]2CSCN2C(=O)[C@@H]2CSCN12	inactive	inactive	Non-Toxic	inactive
C[C@@H]1NC(=O)[C@H](C)NC1=O	inactive	inactive	Non-Toxic	inactive
CC(C)C[C@@H]1NC(=O)[C@H](COCc2ccccc2)NC1=O	inactive	inactive	Non-Toxic	inactive
C[C@@H]1NC(=O)[C@H](CCC(N)=O)NC1=O	inactive	inactive	Non-Toxic	inactive
CC(C)[C@@H]1NC(=O)[C@H](COCc2ccccc2)NC1=O	inactive	inactive	Non-Toxic	inactive
CC(C)C[C@@H]1NC(=O)[C@H](Cc2ccc(OCc3ccccc3)cc2)NC1=O	inactive	inactive	Non-Toxic	inactive
CC(C)C[C@@H]1NC(=O)[C@@H](C(C)C)NC1=O	inactive	inactive	Non-Toxic	inactive
O=C1N[C@H](Cc2ccccc2)C(=O)N[C@H]1COCc1ccccc1	inactive	inactive	Non-Toxic	inactive
CCC(C)[C@@H]1NC(=O)[C@H](C(C)CC)NC1=O (some centres not stated)	inactive	inactive	Non-Toxic	inactive
CC(C)C[C@H]1NC(=O)[C@H](C(C)C)NC1=O	inactive	inactive	Non-Toxic	inactive
CC(C)C[C@H]1NC(=O)[C@@H](Cc2ccccc2)NC1=O	inactive	inactive	Non-Toxic	inactive
O=C1N[C@@H](Cc2ccccc2)C(=O)N[C@H]1COCc1ccccc1	inactive	inactive	Non-Toxic	inactive
CC(C)[C@@H]1NC(=O)[C@@H](Cc2ccc(OCc3ccccc3)cc2)NC1=O	inactive	inactive	Non-Toxic	inactive
O=C1N[C@@H](Cc2ccc([N+](=O)[O-])cc2)C(=O)N[C@H]1Cc1ccc([N+](=O)[O-])cc1	inactive	inactive	Non-Toxic	inactive
CC(C)C[C@@H]1NC(=O)[C@H](Cc2ccccc2)NC1=O	inactive	inactive	Non-Toxic	inactive
